Reference: the CheMixHub viscosity set

Experiment: xn = mol fraction of the nth substance listed

CC(C)(C)O + CO
303.2 K, 101.33 kPa
Conditions	viscosity [mPa·s]
x2 = 0.05	3.285
x2 = 0.1	3.166
x2 = 0.15	3
x2 = 0.2	2.806
x2 = 0.3	2.4
x2 = 0.4	2.016
x2 = 0.5	1.649
x2 = 0.6	1.36
x2 = 0.7	1.069
x2 = 0.8	0.842
x2 = 0.85	0.746
x2 = 0.9	0.658
x2 = 0.95	0.574

OC[C@H]1O[C@@H]2O[C@H]3[C@H](O)[C@@H](O)[C@@H](O[C@H]4[C@H](O)[C@@H](O)[C@@H](O[C@H]5[C@H](O)[C@@H](O)[C@@H](O[C@H]6[C@H](O)[C@@H](O)[C@@H](O[C@H]7[C@H](O)[C@@H](O)[C@@H](O[C@H]8[C@H](O)[C@@H](O)[C@@H](O[C@H]1[C@H](O)[C@H]2O)O[C@@H]8CO)O[C@@H]7CO)O[C@@H]6CO)O[C@@H]5CO)O[C@@H]4CO)O[C@@H]3CO + O
viscosity [mPa·s], 101 kPa
Conditions	298.15 K	310.15 K
x1 = 7.87e-06	0.8909	0.6934
x1 = 8.39e-06	0.891	0.6935
x1 = 1.613e-05	0.8917	0.6944
x1 = 1.679e-05	0.8918	0.6945
x1 = 3.14e-05	0.8931	0.6962
x1 = 6.268e-05	0.8961	0.6998
x1 = 6.666e-05	0.8964	0.7003
x1 = 0.0001254	0.9019	0.7071
x1 = 0.0001309	0.9024	0.7078
x1 = 0.0001573	0.9049	0.7109
x1 = 0.0001654	0.9057	0.7118
x1 = 0.0001906	0.908	0.7148
x1 = 0.0002383	0.9125	0.7203

CCCCOC(=O)c1ccccc1 + CCCCCCC
viscosity [mPa·s], 101 kPa
Conditions	x1 = 0.0994	x1 = 0.1959	x1 = 0.2964	x1 = 0.3986	x1 = 0.4963	x1 = 0.5965	x1 = 0.6954	x1 = 0.7986	x1 = 0.8973
298.15 K	0.457	0.536	0.645	0.777	0.95	1.162	1.411	1.731	2.122
308.15 K	0.41	0.476	0.571	0.686	0.811	0.978	1.176	1.413	1.727
318.15 K	0.368	0.426	0.501	0.598	0.697	0.835	0.991	1.192	1.426

CCNCC + CCC(C)O
viscosity [mPa·s], 100 kPa
Conditions	293.15 K	298.15 K	303.15 K	308.15 K	313.15 K	318.15 K	323.15 K
x1 = 0.0221	3.49	2.91	2.42	2.04	1.73	1.49	1.28
x1 = 0.081	3.02	2.54	2.12	1.82	1.55	1.34	1.18
x1 = 0.1601	2.49	2.11	1.8	1.56	1.33	1.16	1.049
x1 = 0.24	2.04	1.75	1.51	1.31	1.15	1.01	0.93
x1 = 0.3494	1.602	1.37	1.17	1.033	0.92	0.83	0.771
x1 = 0.4395	1.32	1.13	0.98	0.867	0.78	0.71	0.66
x1 = 0.5602	1.032	0.868	0.754	0.68	0.62	0.574	0.533
x1 = 0.65	0.827	0.712	0.628	0.57	0.528	0.489	0.459
x1 = 0.74	0.662	0.58	0.515	0.48	0.443	0.416	0.389
x1 = 0.8503	0.496	0.447	0.41	0.38	0.359	0.337	0.318
x1 = 0.94	0.384	0.356	0.335	0.309	0.298	0.284	0.268
x2 = 0.0129	0.336	0.317	0.3	0.284	0.27	0.257	0.244
